Measured values from ChEMBL document CHEMBL1142870, “Antitumor potential of crown ethers: structure-activity relationships, cell cycle disturbances, and cell death studies of a series of ionophores” (J Med Chem, 2007).
pIC50: −log10 of the molar value.

Assays:
HeLa = test: Antiproliferative activity against HeLa cells after 72 hrs by MTT assay; type: functional, cell-based; conditions: Homo sapiens
MCF7 = test: Antiproliferative activity against MCF7 cells after 72 hrs by MTT assay; type: functional, cell-based; conditions: Homo sapiens, MCF7, 72 h
NCI-H460 = test: Antiproliferative activity against H460 cells after 72 hrs by MTT assay; type: functional, cell-based; conditions: Homo sapiens, NCI-H460, 72 h
SW-620 = test: Antiproliferative activity against SW620 cells after 72 hrs by MTT assay; type: functional, cell-based; conditions: Homo sapiens, SW-620, 72 h
MIA PaCa-2 [1] = test: Antiproliferative activity against MiaPaCa2 cells after 72 hrs by MTT assay; type: functional, cell-based; conditions: Homo sapiens, MIA PaCa-2, 72 h
MIA PaCa-2 [2] = test: Cell cycle arrest in MiaPaCa2 cells by accumulation at G1/G0 phase at 10 nM after 24 hrs; type: functional, Homo sapiens
MIA PaCa-2 [3] = test: Cell cycle arrest at MiaPaCa2 cells by accumulation at S phase at 10 nM after 24 hrs; type: functional, Homo sapiens
MIA PaCa-2 [4] = test: Cell cycle arrest in MiaPaCa2 cells by accumulation at SubG1 phase at 10 nM after 24 hrs; type: functional, Homo sapiens
MIA PaCa-2 [5] = test: Cell cycle arrest at MiaPaCa2 cells by accumulation at S phase at 10 nM after 48 hrs; type: functional, Homo sapiens
MIA PaCa-2 [6] = test: Cell cycle arrest at MiaPaCa2 cells by accumulation at G2/M phase at 10 nM after 24 hrs; type: functional, Homo sapiens
MIA PaCa-2 [7] = test: Cell cycle arrest in MiaPaCa2 cells by accumulation at G1/G0 phase at 10 nM after 36 hrs; type: functional, Homo sapiens
MIA PaCa-2 [8] = test: Cell cycle arrest at MiaPaCa2 cells by accumulation at G2/M phase at 10 nM after 48 hrs; type: functional, Homo sapiens
MIA PaCa-2 [9] = test: Cell cycle arrest at MiaPaCa2 cells by accumulation at G2/M phase at 10 nM after 36 hrs; type: functional, Homo sapiens
MIA PaCa-2 [10] = test: Cell cycle arrest in MiaPaCa2 cells by accumulation at SubG1 phase at 10 nM after 48 hrs; type: functional, Homo sapiens
MIA PaCa-2 [11] = test: Cell cycle arrest in MiaPaCa2 cells by accumulation at G1/G0 phase at 10 nM after 48 hrs; type: functional, Homo sapiens
MIA PaCa-2 [12] = test: Cell cycle arrest in MiaPaCa2 cells by accumulation at G1 phase at 10 nM; type: functional, cell-based; conditions: Homo sapiens, TDE = time-dependent effect
MIA PaCa-2 [13] = test: Cell cycle arrest in MiaPaCa2 cells by accumulation at SubG1 phase at 10 nM after 36 hrs; type: functional, Homo sapiens
MIA PaCa-2 [14] = test: Cell cycle arrest at MiaPaCa2 cells by accumulation at S phase at 10 nM after 36 hrs; type: functional, Homo sapiens

O=C(NCC(=O)N1CCOCCOCCN(C(=O)CNC(=O)OCc2ccccc2)CCOCCOCC1)OCc1ccccc1
pIC50 (HeLa): 4.43
pIC50 (MCF7): 4.36
pIC50 (NCI-H460): < 4.00
pIC50 (SW-620): 4.40
pIC50 (MIA PaCa-2 [1]): 4.15

CC(C)(C)c1ccc(O)c(O)c1
pIC50 (HeLa): 4.62
pIC50 (MCF7): 4.64
pIC50 (NCI-H460): 4.66
pIC50 (SW-620): 4.66
pIC50 (MIA PaCa-2 [1]): 4.70

C1CCC2OCCOCCOC3CCCCC3OCCOCCOC2C1 (stereo not drawn) [ICOSAHYDRODIBENZO[B,K][1,4,7,10,13,16]HEXAOXACYCLOOCTADECINE]
pIC50 (HeLa): 4.60
pIC50 (MCF7): 4.44
pIC50 (NCI-H460): 4.80
pIC50 (SW-620): 5.15
pIC50 (MIA PaCa-2 [1]): 4.80

CC(C)[C@@H]1NC(=O)[C@H](C)OC(=O)[C@@H](C(C)C)NC(=O)[C@@H](C(C)C)OC(=O)[C@H](C(C)C)NC(=O)[C@H](C)OC(=O)[C@@H](C(C)C)NC(=O)[C@@H](C(C)C)OC(=O)[C@H](C(C)C)NC(=O)[C@H](C)OC(=O)[C@@H](C(C)C)NC(=O)[C@@H](C(C)C)OC1=O [VALINOMYCIN]
Activity (MIA PaCa-2 [2]): 60%
Activity (MIA PaCa-2 [3]): 24%
Activity (MIA PaCa-2 [4]): 35%
pIC50 (HeLa): 9.00
Activity (MIA PaCa-2 [5]): 19%
Activity (MIA PaCa-2 [6]): 24%
pIC50 (MCF7): 6.30
Activity (MIA PaCa-2 [7]): 63%
pIC50 (NCI-H460): 9.00
pIC50 (SW-620): 10.00
Activity (MIA PaCa-2 [8]): 18%
Activity (MIA PaCa-2 [9]): 23%
Activity (MIA PaCa-2 [10]): 49%
Activity (MIA PaCa-2 [11]): 62%
Activity (MIA PaCa-2 [12]): tde
Activity (MIA PaCa-2 [13]): 42%
pIC50 (MIA PaCa-2 [1]): 9.00
Activity (MIA PaCa-2 [14]): 12%

c1ccc2c(c1)OCCOCCOc1ccccc1OCCOCCO2
pIC50 (HeLa): 4.77
pIC50 (MCF7): 4.31
pIC50 (NCI-H460): 4.55
pIC50 (SW-620): 4.77
pIC50 (MIA PaCa-2 [1]): 4.55

CC(C)(C)c1cc2c(c(C(C)(C)C)c1)OCCOCCOc1c(cc(C(C)(C)C)cc1C(C)(C)C)OCCOCCO2
pIC50 (HeLa): 5.00
pIC50 (MCF7): 5.10
pIC50 (NCI-H460): 4.72
pIC50 (SW-620): 4.72
pIC50 (MIA PaCa-2 [1]): 4.82

c1ccc(CN2CCOCCOCCN(Cc3ccccc3)CCOCCOCC2)cc1
pIC50 (HeLa): 4.85
pIC50 (MCF7): 4.60
pIC50 (NCI-H460): 4.60
pIC50 (SW-620): 5.22
pIC50 (MIA PaCa-2 [1]): 4.64

c1ccc2c(c1)OCCOCCOCCOCCOc1ccccc1OCCOCCOCCOCCO2
pIC50 (HeLa): 4.96
pIC50 (MCF7): 4.52
pIC50 (NCI-H460): 5.05
pIC50 (SW-620): 4.77
pIC50 (MIA PaCa-2 [1]): 5.15

c1ccc(CNCCOCCOCCNCc2ccccc2)cc1
pIC50 (HeLa): 4.62
pIC50 (MCF7): < 4.00
pIC50 (NCI-H460): 4.51
pIC50 (SW-620): 4.41
pIC50 (MIA PaCa-2 [1]): < 4.00

CC(C)(C)c1cc(O)c(OCCOCCOc2c(O)cc(C(C)(C)C)cc2C(C)(C)C)c(C(C)(C)C)c1
pIC50 (HeLa): 4.96
pIC50 (MCF7): 4.54
pIC50 (NCI-H460): 5.10
pIC50 (SW-620): 4.72
pIC50 (MIA PaCa-2 [1]): 4.74

c1ccc2c(c1)OCCOCCOCCOc1ccccc1OCCOCCOCCO2
pIC50 (HeLa): 4.68
pIC50 (MCF7): < 4.00
pIC50 (NCI-H460): 4.62
pIC50 (SW-620): 4.14
pIC50 (MIA PaCa-2 [1]): 4.49

OCCN(CCO)Cc1ccccc1
pIC50 (HeLa): < 4.00
pIC50 (MCF7): < 4.00
pIC50 (NCI-H460): < 4.00
pIC50 (SW-620): < 4.00
pIC50 (MIA PaCa-2 [1]): < 4.00

c1ccc(CN2CCOCCOCCOCCOCC2)cc1
pIC50 (HeLa): < 4.00
pIC50 (MCF7): < 4.00
pIC50 (NCI-H460): < 4.00
pIC50 (SW-620): < 4.00
pIC50 (MIA PaCa-2 [1]): < 4.00

COC(=O)[C@H](NC(=O)CN1CCOCCOCCN(CC(=O)N[C@@H](C(=O)OC)c2ccccc2)CCOCCOCC1)c1ccccc1
pIC50 (HeLa): < 4.00
pIC50 (MCF7): < 4.00
pIC50 (NCI-H460): < 4.00
pIC50 (SW-620): ≤ 4.00
pIC50 (MIA PaCa-2 [1]): < 4.00
